Results taken from patent US11230556B2 (Merck Sharp & Dohme Corp., priority 2016, dated 2022).

Molecular target: T1, human M4 muscarinic acetylcholine receptor (Homo sapiens, UniProt P08173)
T1 construct: expressed in transfected cells; host or cells: CHO-K1
T1 sequence (P08173 1-479): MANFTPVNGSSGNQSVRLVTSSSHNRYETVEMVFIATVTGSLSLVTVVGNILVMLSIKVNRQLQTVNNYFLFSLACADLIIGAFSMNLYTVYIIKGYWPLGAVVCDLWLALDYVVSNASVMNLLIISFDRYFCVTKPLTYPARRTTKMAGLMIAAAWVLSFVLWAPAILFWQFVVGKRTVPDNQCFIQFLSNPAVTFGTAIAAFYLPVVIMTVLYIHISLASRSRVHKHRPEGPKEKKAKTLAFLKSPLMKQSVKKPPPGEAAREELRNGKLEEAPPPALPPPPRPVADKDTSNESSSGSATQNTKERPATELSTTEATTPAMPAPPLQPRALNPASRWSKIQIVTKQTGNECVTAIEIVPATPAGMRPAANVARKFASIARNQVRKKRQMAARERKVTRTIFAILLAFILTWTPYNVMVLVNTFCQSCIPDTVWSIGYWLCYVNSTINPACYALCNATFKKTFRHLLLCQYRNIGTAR
Assay: human FLIPR-based M4 PAM assay (CHO-K1 cells with human M4 receptor and Gαqi5, calcium dye fluorescence, acetylcholine at 20% of maximum response)
Format: cell-based
Settings: inflection point (IP) of 4 parameter logistic dose response curve, human M4 receptor + Gαqi5, FLIPR Tetra
Method: In a typical experiment the M4 muscarinic acetylcholine receptor modulating activity of the compounds of the present invention was determined in accordance with the following experimental method. CHO-K1 cells stably transfected with human M4 receptor and chimeric G-protein Gαqi5 (Coward P, et al., Analytical Biochemistry, 270:242-248 (1999)) are thawed from liquid N2 storage, resuspended in growth medium, plated in black, clear bottom 384 well plates, and incubated 16-20 hours at 37° C., 5% CO2. On the day of assay, growth medium is removed, the cells are washed 2 times with wash buffer, and cells are incubated in dye loading buffer at 37° C., 5% CO2 for ˜1 hour. Following dye loading the cell plates are placed in a FLIPR Tetra instrument and while monitoring dye fluorescence (excitation […]), 10 uL of test substance at increasing concentrations is added, and fluorescence values are recorded for 4 min. Next, 10 uL of acetylcholine is added (final concentration calculated so as to achieve 20% of the maximum acetycholine response), and the fluorescence reading is continued for 3.5 min. In some cases, a third addition of acetylcholine (final concentration calculated to achieve 70% of the maximal acetylcholine response) is performed. The resulting dose response curves are fit to a 4 parameter logistic equation and the final result is determined as the inflection point (IP) of the curve
CHO-K1 cells stably transfected with human M4 receptor and chimeric G-protein Gαqi5 are thawed from liquid N2 storage, resuspended in growth medium, plated in black, clear bottom 384 well plates, and incubated 16-20 hours at 37° C., 5% CO2.
On the day of assay, growth medium is removed, the cells are washed 2 times with wash buffer, and cells are incubated in dye loading buffer at 37° C., 5% CO2 for ˜1 h. Following dye loading the cell plates are placed in a FLIPR Tetra instrument and while monitoring dye fluorescence ([…]), 10 uL of test substance at increasing concentrations is added, and fluorescence values are recorded for 4 min. Next, 10 uL of acetylcholine is added (final concentration calculated so as to achieve 20% of the maximum acetycholine response), and the fluorescence reading is continued for 3.5 min. In some cases, a third addition of acetylcholine (final concentration calculated to achieve 70% of the maximal acetylcholine response) is performed.

EC50	SMILES
242 nM	Cc1cn2c(=O)[nH]nc2nc1N1CCC(OCC2CCCC2)CC1 [Example 8, 7-(4-(cyclopentylmethoxy)piperidin-1-yl)-6-methyl-[1,2,4]triazolo[4,3-a]pyrimidin-3(2H)-one]
208 nM	Cc1cc2c(=O)[nH]n(C)c2nc1N1CCC(Oc2cccc(C#N)c2)CC1 [Example 26, 3-((1-(1,5-dimethyl-3-oxo-2,3-dihydro-1H-pyrazolo[3,4-b]pyridin-6-yl)piperidin-4-yl)oxy)benzonitrile]
238 nM	COc1ccc(OC2CCN(c3nc4c(cc3C)CN(C(=O)CN(C)C)C4)CC2)cn1 [Example 54, 2-(dimethylamino)-1-(2-(4-((6-methoxypyridin-3-yl)oxy)piperidin-1-yl)-3-methyl-5,7-dihydro-6H-pyrrolo[3,4-b]pyridin-6-yl)ethan-1-one]
36 nM	Cc1cn2c(=O)n(C)nc2nc1N1CCC(Oc2cccc(C#N)c2)CC1 [Example 17, 3-((1-(2,6-dimethyl-3-oxo-2,3-dihydro-[1,2,4]triazolo[4,3-a]pyrimidin-7-yl)piperidin-4-yl)oxy)benzonitrile]
1650 nM	COc1ccc(OC2CCN(c3nc4c(C)n[nH]c4cc3C)CC2)cn1 [Example 65, 5-(4-((6-Methoxypyridin-3-yl)oxy)piperidin-1-yl)-3,6-dimethyl-1H-pyrazolo [4,3-b]pyridine]
453 nM	COc1ccc(OC2CCN(c3nc4c(cc3C)CN(C(=O)C3CN(C)C3)C4)CC2)cn1 [Example 52, (2-(4-((6-methoxypyridin-3-yl)oxy)piperidin-1-yl)-3-methyl-5,7-dihydro-6H-pyrrolo[3,4-b]pyridin-6-yl)(1-methylazetidin-3-yl)methanone]
589 nM	COc1ccc(OC2CCN(c3nc4nccn4c(Cl)c3C)CC2)cn1 [Example 28, 5-chloro-7-(4-((6-methoxypyridin-3-yl)oxy)piperidin-1-yl)-6-methylimidazo[1,2-a]pyrimidine]
35 nM	Cc1cn2c(=O)[nH]nc2nc1N1CCC(Oc2cccc(C#N)c2)CC1 [Example 16, 3-((1-(6-methyl-3-oxo-2,3-dihydro-[1,2,4]triazolo[4,3-a]pyrimidin-7-yl)piperidin-4-yl)oxy)benzonitrile]
368 nM	COc1ccc(OC2CCN(c3nc4[nH]ncc4cc3C)CC2)cn1 [Example 63, 6-(4-((6-Methoxypyridin-3-yl)oxy)piperidin-1-yl)-5-methyl-1H-pyrazolo[3,4-b]pyridine]
54 nM	Cc1cn2c(=O)n(C)nc2nc1N1CCC(Oc2ccccc2)CC1 [Example 19, 2,6-dimethyl-7-(4-phenoxypiperidin-1-yl)-[1,2,4]triazolo[4,3-a]pyrimidin-3(2H)-one]
39 nM	Cc1cc2c(=O)[nH][nH]c2nc1N1CCC(Oc2ccc3cn[nH]c3c2)CC1 [Example 24, 6-(4-((1H-indazol-6-yl)oxy)piperidin-1-yl)-5-methyl-1,2-dihydro-3H-pyrazolo[3,4-b]pyridin-3-one]
249 nM	COc1ccc(OC2CCN(c3nc4c(cc3C)c(=O)[nH]n4C)CC2)cn1 [Example 25, 6-(4-((6-methoxypyridin-3-yl)oxy)piperidin-1-yl)-1,5-dimethyl-1,2-dihydro-3H-pyrazolo[3,4-b]pyridin-3-one]
20 nM	Cc1cc2c(nc1N1CCC(Oc3ccccc3)CC1)CN(S(C)(=O)=O)C2 [Example 60, 3-methyl-6-(methylsulfonyl)-2-(4-phenoxypiperidin-1-yl)-6,7-dihydro-5H-pyrrolo[3,4-b]pyridine]
212 nM	COc1ccc(OC2CCN(c3nc4c(cc3C)CN(C(=O)C3COC3)C4)CC2)cn1 [Example 55, (2-(4-((6-methoxypyridin-3-yl)oxy)piperidin-1-yl)-3-methyl-5,7-dihydro-6H-pyrrolo[3,4-b]pyridin-6-yl)(oxetan-3-yl)methanone]
1510 nM	COc1ccc(OC2CCN(c3nc4c(cc3C)CCC4)CC2)cn1 [Example 72, 2-(4-((6-Methoxypyridin-3-yl)oxy)piperidin-1-yl)-3-methyl-6,7-dihydro-5H-cyclopenta[b]pyridine]
856 nM	COc1ccc(OC2CCN(c3nc4c(cc3C)C(=O)OC4(C)C)CC2)cn1 [Example 30, 2-(4-((6-methoxypyridin-3-yl)oxy)piperidin-1-yl)-3,7,7-trimethylfuro[3,4-b]pyridin-5(7H)-one]
481 nM	COc1ccc(OC2CCN(c3nc4c(cc3C)CN(C(=O)c3ccc[nH]3)C4)CC2)cn1 [Example 50, (2-(4-((6-methoxypyridin-3-yl)oxy)piperidin-1-yl)-3-methyl-5,7-dihydro-6H-pyrrolo[3,4-b]pyridin-6-yl)(1H-pyrrol-2-yl)methanone]
63 nM	COc1ccc(OC2CCN(c3nc4c(cc3C)C(=O)C(F)(F)C4)CC2)cn1 [Example 70, 6,6-difluoro-2-(4-((6-methoxypyridin-3-yl)oxy)piperidin-1-yl)-3-methyl-6,7-dihydro-5H-cyclopenta[b]pyridin-5-one]
502 nM	COc1ccc(OC2CCN(c3nc4c(cc3C)CN(C(=O)CCN(C)C)C4)CC2)cn1 [Example 53, 3-(dimethylamino)-1-(2-(4-((6-methoxypyridin-3-yl)oxy)piperidin-1-yl)-3-methyl-5,7-dihydro-6H-pyrrolo[3,4-b]pyridin-6-yl)propan-1-one]
1050 nM	COc1ccc(OC2CCN(c3nc4c(cc3C)C(O)CC4)CC2)cn1 (single isomer, unassigned) [Example 71B]
193 nM	COc1ccc(OC2CCN(c3nc4c(cc3C)CNC4=O)CC2)cn1 [Example 1, (4-((6-Methoxypyridin-3-yl)oxy)piperidin-1-yl)-3-methyl-5H-pyrrolo[3,4-b]pyridin-7(6H)-one]
112 nM	Cc1cn2c(=O)n(C)nc2nc1N1CCC(Oc2ccc3c(cnn3C)c2)CC1 [Example 9, 2,6-dimethyl-7-(4-((1-methyl-1H-indazol-5-yl)oxy)piperidin-1-yl)-[1,2,4]triazolo[4,3-a]pyrimidin-3(2H)-one]
151 nM	COc1ccc(OC2CCN(c3nc4c(cc3C)COC4=O)CC2)cn1 [Example 20, 2-(4-((6-Methoxypyridin-3-yl)oxy)piperidin-1-yl)-3-methylfuro[3,4-b]pyridin-7(5H)-one]
103 nM	Cc1cc2c(nc1N1CCC(Oc3ccc4c(c3)COC4)CC1)C1CNCCN1C2=O (single isomer, unassigned) [Example 83A]
55 nM	Cc1cn2c(=O)[nH]nc2nc1N1CCC(Oc2ccccc2)CC1 [Example 15, 6-Methyl-7-(4-phenoxypiperidine-1-yl)-[1.2.4]triazolo[4,3-a]pyrimidin-3(2H)-one]
92 nM	COc1ccc(OC2CCN(c3nc4c(cc3C)C(=O)N3CCOCC43)CC2)cn1 (stereo not shown) [Example 82, 2-(4-((6-methoxypyridin-3-yl)oxy)piperidin-1-yl)-3-methyl-7,8,10,10a-tetrahydro-5H-pyrido[2′,3′:3,4]pyrrolo[2,1-c][1,4]oxazin-5-one]
275 nM	Cc1cc2c(nc1N1CCC(Oc3ccccc3)CC1)CNS2(=O)=O [Example 77, 6-methyl-5-(4-phenoxypiperidin-1-yl)-2,3-dihydroisothiazolo[4,5-b]pyridine 1,1-dioxide]
57 nM	Cc1cc2c(=O)[nH][nH]c2nc1N1CCC(Oc2cccc(C#N)c2)CC1 [Example 22, 3-((1-(5-methyl-3-oxo 2,3-dihydro-1H-pyrazolo[3,4-b]pyridin-6-yl)piperidin-4-yl)oxy)benzonitrile]
